# Test results published in US11046680B1, “Heteroaryl-substituted triazoles as APJ receptor agonists” (priority 2016, dated 2021).
# Biological target: human APJ receptor (Homo sapiens (Human), UniProt P35414)
# Test: biochemical
# Assay type: biochemical
# Details: [35S]GTPγS binding, CHO membranes expressing human APJ receptor; read-out: Activity hAPJ SPA EC50 IP
# Outline: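 Membranes of a stable CHO line carrying human APJ (pFLAG-CMV-3) were used in a GTPγS binding format; buffer GDP, MgCl2 and NaCl were optimized, and plates were read after 90 min at RT.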
# Chain of human APJ receptor (P35414 whole entry): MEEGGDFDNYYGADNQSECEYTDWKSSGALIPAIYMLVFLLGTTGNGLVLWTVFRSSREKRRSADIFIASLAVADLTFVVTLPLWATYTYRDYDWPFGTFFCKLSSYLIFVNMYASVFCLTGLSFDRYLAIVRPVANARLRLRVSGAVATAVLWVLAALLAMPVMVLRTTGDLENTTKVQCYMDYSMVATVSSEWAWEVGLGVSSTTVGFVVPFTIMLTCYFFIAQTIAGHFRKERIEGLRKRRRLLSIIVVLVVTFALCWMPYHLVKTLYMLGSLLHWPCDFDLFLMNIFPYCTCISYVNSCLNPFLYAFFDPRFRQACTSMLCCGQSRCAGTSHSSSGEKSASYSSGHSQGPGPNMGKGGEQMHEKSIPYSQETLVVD
row,SMILES,EC50
1,"COc1cnc([C@@H](C)[C@H](C)S(=O)(=O)Nc2nnc(-c3ccn(C)n3)n2-c2c(OC)cccc2OC)nc1 [Example 295.0, (2S,3R)-N-(4-(2,6-dimethoxyphenyl)-5-(1-methyl-1H-pyrazol-3-yl)-4H-1,2,4-triazol-3-yl)-3-(5-methoxy-2-pyrimidinyl)-2-butanesulfonamide]",0.4 nM
2,"COc1cnc([C@@H](C)[C@H](C)S(=O)(=O)Nc2nnc(-c3ccn(C)n3)n2-c2c(OC)ncnc2OC)nc1 [Example 296.0, (2S,3R)-N-(4-(4,6-dimethoxy-5-pyrimidinyl)-5-(1-methyl-1H-pyrazol-3-yl)-4H-1,2,4-triazol-3-yl)-3-(5-methoxy-2-pyrimidinyl)-2-butanesulfonamide]",2.7 nM
3,COc1cnc([C@H](C)[C@H](C)S(=O)(=O)Nc2nnc(-c3ccn(C)n3)n2-c2c(OC)ncnc2OC)nc1 [Example 297.0],0.14 nM
4,COc1cnc([C@@H](C)[C@@H](C)S(=O)(=O)Nc2nnc(-c3ccn(C)n3)n2-c2c(OC)ncnc2OC)nc1 [Example 298.0],1 nM
5,"COc1cnc([C@H](C)[C@@H](C)S(=O)(=O)Nc2nnc(-c3ccn(C)n3)n2-c2c(OC)cccc2OC)cn1 [Example 301.0, (2R,3S)-N-(4-(2,6-dimethoxyphenyl)-5-(1-methyl-1H-pyrazol-3-yl)-4H-1,2,4-triazol-3-yl)-3-(5-methoxy-2-pyrazinyl)-2-butanesulfonamide]",11 nM
6,"COc1cccc(OC)c1-n1c(NS(=O)(=O)[C@@H](C)[C@H](C)c2cnc(C)cn2)nnc1-c1ccn(C)n1 [Example 306.0, (2S,3R)-N-(4-(2,6-dimethoxyphenyl)-5-(1-methyl-1H-pyrazol-3-yl)-4H-1,2,4-triazol-3-yl)-3-(5-methyl-2-pyrazinyl)-2-butanesulfonamide]",2.5 nM
7,"COc1cccc(OC)c1-n1c(NS(=O)(=O)CCc2ccc(Cl)cc2)nnc1-c1cccs1 [Example 311.0, 2-(4-Chlorophenyl)-N-(4-(2,6-dimethoxyphenyl)-5-(thiophen-2-yl)-4H-1,2,4-triazol-3-yl)ethanesulfonamide]",3.8 nM
8,"COc1ccc(S(C)(=O)=O)cc1-n1c(NS(=O)(=O)CCc2ccc(Cl)cc2)nnc1-c1cccs1 [Example 312.0, 2-(4-Chlorophenyl)-N-(4-(2-methoxy-5-(methylsulfonyl)phenyl)-5-(thiophen-2-yl)-4H-1,2,4-triazol-3-yl)ethanesulfonamide]",76 nM
9,"COc1cncc(-c2nnc(NS(=O)(=O)[C@@H](C)[C@H](OC)c3cnc(C)cn3)n2-c2c(OC)cccc2OC)n1 [Example 327.0, (1R,2S)-N-(4-(2,6-dimethoxyphenyl)-5-(6-methoxy-2-pyrazinyl)-4H-1,2,4-triazol-3-yl)-1-methoxy-1-(5-methyl-2-pyrazinyl)-2-propanesulfonamide]",4 nM
10,"COc1cccc(OC)c1-n1c(NS(=O)(=O)[C@@H](C)[C@H](OC)c2ncc(C)cn2)nnc1-c1ncc(C)s1 [Example 331.0, (1R,2S)-N-(4-(2,6-Dimethoxyphenyl)-5-(5-methyl-1,3-thiazol-2-yl)-4H-1,2,4-triazol-3-yl)-1-methoxy-1-(5-methyl-2-pyrimidinyl)-2-propanesulfonamide]",0.98 nM
11,"COc1cccc(OC)c1-n1c(NS(=O)(=O)[C@@H](C)[C@H](OC)c2ncc(C)cn2)nnc1-c1ccc(C)s1 [Example 332.0, (1R,2S)-N-(4-(2,6-dimethoxyphenyl)-5-(5-methyl-2-thiophenyl)-4H-1,2,4-triazol-3-yl)-1-methoxy-1-(5-methyl-2-pyrimidinyl)-2-propanesulfonamide]",0.37 nM
12,"COc1cccc(OC)c1-n1c(NS(=O)(=O)[C@@H](C)[C@H](OC)c2ncc(C)cn2)nnc1-c1cc(C)[nH]n1 [Example 333.0, (1R,2S)-N-(4-(2,6-dimethoxyphenyl)-5-(5-methyl-1H-pyrazol-3-yl)-4H-1,2,4-triazol-3-yl)-1-methoxy-1-(5-methyl-2-pyrimidinyl)-2-propanesulfonamide]",1.5 nM
13,"COc1cccc(OC)c1-n1c(NS(=O)(=O)[C@@H](C)[C@H](OC)c2ncc(C)cn2)nnc1-c1ccc(Cl)s1 [Example 334.0, (1R,2S)-N-(5-(5-chloro-2-thiophenyl)-4-(2,6-dimethoxyphenyl)-4H-1,2,4-triazol-3-yl)-1-methoxy-1-(5-methyl-2-pyrimidinyl)-2-propanesulfonamide]",0.52 nM
14,"COc1ccc2[nH]c(-c3nnc(NS(=O)(=O)[C@@H](C)[C@H](OC)c4ncc(C)cn4)n3-c3c(OC)cccc3OC)cc2c1 [Example 336.0, (1R,2S)-N-(4-(2,6-dimethoxyphenyl)-5-(5-methoxy-1H-indo1-2-yl)-4H-1,2,4-triazol-3-yl)-1-methoxy-1-(5-methyl-2-pyrimidinyl)-2-propanesulfonamide]",310 nM
15,"COc1cccc(OC)c1-n1c(NS(=O)(=O)[C@@H](C)[C@H](OC)c2ncc(C)cn2)nnc1-c1cnccn1 [Example 337.0, (1R,2S)-N-(4-(2,6-dimethoxyphenyl)-5-(2-pyrazinyl)-4H-1,2,4-triazol-3-yl)-1-methoxy-1-(5-methyl-2-pyrimidinyl)-2-propanesulfonamide]",6.8 nM
16,"COc1cccc(OC)c1-n1c(NS(=O)(=O)[C@@H](C)[C@H](OC)c2ncc(C)cn2)nnc1-c1csc(C)n1 [Example 338.0, (1R,2S)-N-(4-(2,6-dimethoxyphenyl)-5-(2-methyl-1,3-thiazol-4-yl)-4H-1,2,4-triazol-3-yl)-1-methoxy-1-(5-methyl-2-pyrimidinyl)-2-propanesulfonamide]",0.34 nM
17,"COc1cccc(OC)c1-n1c(NS(=O)(=O)[C@@H](C)[C@H](OC)c2ncc(C)cn2)nnc1-c1coc(C)n1 [Example 339.0, (1R,2S)-N-(4-(2,6-dimethoxyphenyl)-5-(2-methyl-1,3-oxazol-4-yl)-4H-1,2,4-triazol-3-yl)-1-methoxy-1-(5-methyl-2-pyrimidinyl)-2-propanesulfonamide]",2.1 nM
18,"COc1cccc(OC)c1-n1c(NS(=O)(=O)[C@@H](C)[C@H](OC)c2ncc(C)cn2)nnc1-c1nc(C2CC2)cs1 [Example 340.0, (1R,2S)-N-(5-(4-cyclopropyl-1,3-thiazol-2-yl)-4-(2,6-dimethoxyphenyl)-4H-1,2,4-triazol-3-yl)-1-methoxy-1-(5-methyl-2-pyrimidinyl)-2-propanesulfonamide]",0.26 nM
19,"COc1cccc(OC)c1-n1c(NS(=O)(=O)[C@@H](C)[C@H](OC)c2ncc(C)cn2)nnc1-c1nccs1 [Example 341.0, (1R,2S)-N-(4-(2,6-dimethoxyphenyl)-5-(1,3-thiazol-2-yl)-4H-1,2,4-triazol-3-yl)-1-methoxy-1-(5-methyl-2-pyrimidinyl)-2-propanesulfonamide]",0.73 nM
20,"COc1cccc(OC)c1-n1c(NS(=O)(=O)[C@@H](C)[C@H](OC)c2ncc(C)cn2)nnc1-c1cscn1 [Example 342.0, (1R,2S)-N-(4-(2,6-dimethoxyphenyl)-5-(1,3-thiazol-4-yl)-4H-1,2,4-triazol-3-yl)-1-methoxy-1-(5-methyl-2-pyrimidinyl)-2-propanesulfonamide]",0.5 nM
21,"COc1cncc(-c2nnc(NS(=O)(=O)[C@@H](C)[C@H](OC)c3ncc(C)cn3)n2-c2c(OC)cccc2OC)n1 [Example 343.0, (1R,2S)-N-(4-(2,6-dimethoxyphenyl)-5-(6-methoxy-2-pyrazinyl)-4H-1,2,4-triazol-3-yl)-1-methoxy-1-(5-methyl-2-pyrimidinyl)-2-propanesulfonamide]",2.6 nM
